Results: US8080115B2, “Method for the surface treatment of a metallic or fibrous material” (priority 2005, dated 2011)

What was measured:
[1] = Flammability / flashpoint of the compositions; format: physicochemical
[2] = Degreasing of steel sheets with an impregnated cotton pad; parameters: key to degreasing grade: Grade=1: visible residual presence of a thin greasy film; Grade=2: visible residual presence of small greasy spots; Grade=3: visible absence of fatty substance (degreased sheet); conditions: for OVERALL GRADE (/10): from the number of the 9 fatty substances with grade 3
Excerpt: Steel sheets covered with a thin, uniform film of different greases, lubricants or straight cutting oils commonly used in the metal-processing industry are degreased.
The performances of these 7 compositions are compared for 9 commercial greases and oils of different chemical mixtures.
For the purpose of the evaluation, a cotton pad is impregnated with the test composition and then this cotton pad is brought into contact with a thin and uniform film of fatty substances deposited on the surface of a steel sheet. This operation is repeated twice. The steel sheet is subsequently rinsed with cold water, so as to remove the solvent. The degreasing effect is subsequently graded as follows:
Grade=1: visible residual presence of a thin greasy film,
Grade=2: visible residual presence of small greasy spots,
Grade=3: visible absence of fatty substance (degreased sheet).
For each of Compositions 1 to 7, an “overall grade” is assigned to the function of the number of fatty substances for which the composition in question has not made it possible to achieve the grade of 3. This overall grade, with a maximum value of 10, is assigned in the following way:
For each Composition 1 to 7, the grade obtained a) for the specific degreasing of each of the fatty substances FS1 to FS9 deposited (grade from 1 to 3) and b) overall, as degreasing composition (grades from 6/10 to 10/10) is thus taken up in the table below.

[3] = Risks of harmfulness for the aquatic environment / bioaccumulation; parameters: key: −=harmful demonstrated; +=slight risk; ++=very slight risks
Excerpt: For each of Compositions A to E, the characteristics of odor (“ODOR”), of stability at alkaline pH, i.e. at a pH of 9 (“STAB.”) and of risks of harmfulness in terms of protection of the aquatic environment/bioaccumulation (“BIO.”) are taken up in the table below according to the following notation: […]

[4] = Ready biodegradability, OECD No. 301 A (DOC Die-away Test); conditions: at 28 days
[5] = Aerobic inherent biodegradability, OECD 302 B (Zahn-Wellens EMPA Test); conditions: at 28 days
Excerpt: The biodegradability is here measured according to the process, hereinafter denoted “OECD 302 B”, recommended by the OECD under the following number and following title: No. 302 B—Inherent Biodegradability: Zahn—Wellens EMPA Test.

[6] = test system: aquatic organisms, such as bacteria, freshwater algae, daphnia and freshwater fish; assay: Toxicity for aquatic organisms
man = conditions: previously described advantages; cited from earlier work
[7] = compulsory labelings R51/R53; cited from earlier work
[8] = FS 2 = mixture of petroleum mineral oils
[9] = FS 4 = molybdenum disulfide grease
[10] = FS 5 = mixture of mineral oil, of paraffinic hydrocarbons and of graphite
[11] = FS 6 = polydimethylsiloxane oil
[12] = FS 7 = mutifraction oily mixture
[13] = FS 8 = biostable polyvalent microemulsion
[14] = FS 9 = nonchlorinated special lubricant

flashpoint [1] [°C]	Molecule	degreasing grade ([2]; FS 1 = paraffinic mineral oil)	degreasing grade [2, 8]	degreasing grade ([2]; FS 3 = food-grade mineral oil)	degreasing grade [2, 9]	degreasing grade [2, 10]	degreasing grade [2, 11]	degreasing grade [2, 12]	degreasing grade [2, 13]	degreasing grade [2, 14]	OVERALL GRADE (/10) [2]	BIO. (risks of harmfulness, protection of the aquatic environment/bioaccumulation) [3]	ready biodegradability [4] [%]	aerobic inherent biodegradability [5] [%]	toxicity for aquatic organisms [6]	irritant nature and toxicity to man (man)	toxicity for the environment [7]
46	CCOC(=O)C(C)O (stereo not shown) [Composition 4, ethyl lactate]	3	3	3	3	2	3	3	2	3	8 /10						
	ClCCl [Composition 2, dichloromethane]	3	3	3	3	3	3	3	3	3	10 /10						a certain toxicity
48	C=C(C)[C@H]1CC=C(C)CC1 [Composition 3, dipentene]	3	3	3	3	3	3	3	2	3	9 /10						
	2,2,4-trimethyl-1,3-pentanediol monoisobutyrate [Composition A]											−					
	ClC=C(Cl)Cl [Composition 1, trichloroethylene]	3	3	3	3	3	3	3	3	3	10 /10						a certain toxicity

Molecule	flashpoint [1] [°C]	degreasing grade ([2]; FS 1 = paraffinic mineral oil)	degreasing grade [2, 8]	degreasing grade ([2]; FS 3 = food-grade mineral oil)	degreasing grade [2, 9]	degreasing grade [2, 10]	degreasing grade [2, 11]	degreasing grade [2, 12]	degreasing grade [2, 13]	degreasing grade [2, 14]	OVERALL GRADE (/10) [2]	BIO. (risks of harmfulness, protection of the aquatic environment/bioaccumulation) [3]	ready biodegradability [4] [%]	aerobic inherent biodegradability [5] [%]	toxicity for aquatic organisms [6]	irritant nature and toxicity to man (man)	toxicity for the environment [7]
CO[C@H]1CO[C@H]2[C@@H]1OC[C@H]2OC [Composition 5, dimethyl isosorbide]	120	3	3	2	3	2	2	3	2	3	6 /10	++	~25	~36	absence of toxicity for aquatic organisms	absence of irritant nature and of toxicity to man	
